What all share (experiment): inhibition of tumour cell growth, NCI panel, 48 h
For experiment [1], the system named is ACHN.
Experiment [2] concerns BT-549.
Experiment [3] concerns HCC 2998.
Experiment [4] relates to HCT-116.
Experiment [5] has as its system HT-29.
The subject of experiment [6] is Hs-578T.
Experiment [7] deals with IGROV-1.
For experiment [8], the system named is MDA-MB-231.
Experiment [9] has as its system MDA-N.
Experiment [10] deals with MOLT-4.
Experiment [11] deals with NCI-H226.
For experiment [12], the system named is NCI-H522.
The subject of experiment [13] is NCI/ADR-RES.
The subject of experiment [14] is PC-3.
The test system of experiment [15] is SK-MEL-5.
In experiment [16] the test system is SNB-19.
The test system of experiment [17] is SNB-75.
Experiment [18] deals with T47D.
In experiment [19] the test system is SK-MEL-28.

Results on four compounds are retold here after ChEMBL document CHEMBL1201862, “PubChem BioAssay data set” (2004).

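Test compounds were applied to cells in 96-well plates for 48 hours at 5 doses. GI50 marks 50% less growth.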 Calls of active or inactive are those of the source. Rule as the data show it: active = GI50 up to about 1.1 µM and inactive = higher.

For the compound `CCOC(=O)C(Cc1ccc(OC(=O)c2ccc(OC)cc2OC)cc1)NC(=O)C(F)(F)F` (centres undefined), the GI50 in [1] is 17.2 µM (inactive); in experiment [2] it was 79.1 µM (inactive); in [3] it was 16.5 µM (inactive); in experiment [4] it was 34.1 µM (inactive); in experiment [5], 20.7 µM (inactive); in experiment [6] it was 27.5 µM (inactive). The GI50 in [7] is 19.2 µM (inactive); in experiment [8], 57.7 µM (inactive); in experiment [9], 20 µM (inactive); in experiment [10] it was 16.8 µM (inactive); in experiment [11], 65.2 µM (inactive); in experiment [12], 17.9 µM (inactive). Further, the GI50 was 32 µM (inactive) in [13]; 21.8 µM (inactive) in experiment [14]; 37.3 µM (inactive) in experiment [15]; 33.6 µM (inactive) in experiment [16]; 16.4 µM (inactive) in experiment [17]; 23.8 µM (inactive) in [18].
On to `COc1ccc(N2C(=O)C3c4[nH]c5ccc(OC)cc5c4C4CCC(C(C)C)CC4C3C2=O)cc1` (centres undefined), for which the GI50 was > 100 µM (inactive) in experiment [1]; > 100 µM (inactive) in experiment [2]; 33.7 µM (inactive) in [3]; > 55.3 µM (inactive) in experiment [4]; > 100 µM (inactive) in [5]; 12.1 µM (inactive) in experiment [6]. Besides, the GI50 in [7] is > 38 µM (inactive); in experiment [8], 30.4 µM (inactive); in [9], > 100 µM (inactive); in experiment [10], 28.8 µM (inactive); in experiment [11], > 100 µM (inactive); in [12] it was 18.1 µM (inactive). In addition, the GI50 was > 100 µM (inactive) in experiment [13]; > 100 µM (inactive) in experiment [14]; > 73.6 µM (inactive) in experiment [19]; > 100 µM (inactive) in experiment [15]; 35.6 µM (inactive) in [16]; 17.7 µM (inactive) in experiment [17]. For the same compound, in [18], the GI50 is > 100 µM (inactive).
Consider `Cc1ccc(OCC2OC(n3cnc4nc(Nc5ccc(Cl)c(Cl)c5)nc(Cl)c43)CC2Oc2ccc(C)cc2)cc1` (centres undefined), for which the GI50 in experiment [1], in experiment [2], in experiment [3], in [4], in [5] and in experiment [6] was > 100 µM (inactive) in each case. Also, the GI50 in [7] is 0.855 µM (active); in experiment [8] it was > 100 µM (inactive); in [9], > 100 µM (inactive); in experiment [10], > 100 µM (inactive); in experiment [11] it was 46.9 µM (inactive); in experiment [13], > 100 µM (inactive). Further, the GI50 in experiment [14], in [19], in experiment [15], in [16], in experiment [17] and in experiment [18] was > 100 µM (inactive) each time.
For `C(=N\Nc1nnc2c(n1)[nH]c1ccccc12)/c1cccnc1`, the GI50 in experiment [1], in [2], in experiment [3], in [4], in experiment [5] and in [6] was > 100 µM (inactive) each time. In addition, the GI50 in experiment [7], in experiment [8], in experiment [9], in [10], in experiment [11] and in experiment [12] was > 100 µM (inactive) throughout. Besides, the GI50 in experiment [13], in [14], in experiment [19], in experiment [15], in [16] and in experiment [17] was > 100 µM (inactive) in each case. In addition, the GI50 in [18] is > 100 µM (inactive).
